Experimental data published in patent US9421211B2, “N,N′-diarylurea compounds and N,N′-diarylthiourea compounds as inhibitors of translation initiation” (President and Fellows of Harvard College, priority 2009, dated 2016).
Read-outs that look alike come from different tables or passages of the source.

Assays:
[1] = system: eIF2.GTP.Met-tRNAi ternary complex; test: Ternary complex assay: dual luciferase F-luc/R-luc ratio in KLN-tTA/pBISA-DL(ATF-4) cells (HTS screen, 96-well hit confirmation, dose response); assay type: cell-based, mouse; settings: for Activity 2.5 uM: compound at 2.5 uM; for Activity 2.5 uM / Activity 10 uM: confirmed hits (Table 5); for Activity 10 uM: compound at 10 uM; for Effect on firefly/renilla luciferase ratio: KLN-tTA/pBISA-DL(ATF-4) cells; for fold induction at 3 µM / fold induction at 10 µM: Mus musculus; for fold induction at 3 µM / fold induction at 10 µM / Ternary Complex Activity: Maximum effect (Emax, fold over control) / Cmax: cell line not stated; for Cmax: read-out: Ternary Complex Activity: Maximum effective dose Cmax
Text: For assay development, a bi-directional plasmid was designed in which a common promoter/enhancer complex drives the transcription of firefly luciferase (F-luc) ORF fused to the 5′ untranslated region (UTR) of ATF-4, and of the renilla luciferase (R-luc) ORF fused to a 90-nucleotide 5′ UTR derived from the plasmid (FIG. 6A). Because the tetracycline-regulated transactivator ((tTA), required for driving transcription from this vector) is not normally expressed in the mammalian cells, stable KLN cancer cells were constructed that expressed tTA (KLN-tTA).
The KLN-tTA colonies that drove expression of reporter genes from pBISA-DL plasmid were selected by transient transfection and dual luciferase assay. One of these KLN-tTA cell lines was transfected with the pBISA-DL^(ATF-4) expression vector, stable colonies were selected by dual luciferase assay and expanded. To determine if reduced availability of the eIF2.GTP.Met-tRNAi ternary complex increased the translation of firefly luciferase and decreased translation of renilla luciferase, selected KLN-tTA/pBISA-DL^(ATF-4) colonies were treated with thapsigargin (TG) or tunicamycin (TU), two agents known to cause phosphorylation of eIF2α.
This assay was then adapted for high throughput screening in 96 and 384 well plates. This was done by evaluating the cell density, length of exposure to compounds, DMSO tolerance and optimum firefly and renilla substrate. We then challenged these cells with thapsigargin or DMSO. […] Cell-based assays usually have higher variation than homogeneous in vitro assays due to position effect in the plate, and other variables associated with handling of cells and the plates.
Screening was conducted in 384 well white opaque plates (Nalge Nunc), 100 μl volume RPMI+10% fetal bovine serum. Cells were plated at the sub-confluent density of 10,000 cells/well, and allowed to attach for a period of 16-18 hours at 37° C., 5% CO2. Compounds were added as 1 μl of a 1 mM DMSO stock solution for a final screening concentration of […] using low-volume tips for transfer (Molecular Bioproducts). Cells were then incubated in the presence of compound for an additional sixteen hours, again at 37° C., 5% CO2. Following incubation 70 μl of the culture medium was removed from each well to allow for reagent addition and plates were allowed to equilibrate to room temperature for thirty minutes. Firefly luciferase reporter activity was then read by the addition of thirty microliters of Dual Glo Luciferase reagent (Promega), followed by one hour incubation at room temperature to allow for adequate signal buildup. Luminescence counting was conducted on a Microbeta Trilux using a 1 second read time. Renilla luciferase reporter activity was measured following addition of 30 μl Stop and Glo Luciferase reagent (Promega) and incubation identical to the one carried out for the firefly luciferase one.
Compound scores were interpreted as firefly luciferase activity divided by renilla luciferase activity, normalized to the plate's DMSO control. […] All data analysis was conducted using the BioAssay HTS software package (CambridgeSoft).
102,709 compounds in the NCI Open Chemical Repository were then screened using this HTS assay. […] Initial hits were confirmed by repeating the same dual luciferase assay in 96 well plates. Briefly, 20,000 cells/well were plated in triplicate for each concentration (10, 5 and 2.5 μM) of the compounds.

[2] = system: CRL-2351 human breast cancer cells; test: Cell proliferation SRB assay, CRL-2351; assay type: cell-based
Procedure: (§1) Reduced availability of the ternary complex causes inhibition of translation initiation and thereby of cell proliferation. […] The effects of N,N′-diarylureas on the proliferation KLN mouse squamous cell carcinoma, CRL-2351 human breast, CRL-2813 human melanoma, A549 human lung and PC-3 human prostate cancer cell lines were tested.
(§2) Cell Growth Assay: Cell Growth was Measured by the SRB Assay.

[3] = system: eIF2.GTP.Met-tRNAi ternary complex; test: ATF-4 assay (firefly/renilla luciferase ratio) in CRL-2351 cell line; assay type: cell-based, human
Text: For example, reducing amount of the ternary complex increases translation of ATF-4, which results in elevated expression of CHOP mRNA and protein. Therefore, expression of endogenous CHOP mRNA and CHOP protein in KLN-tTA/pBISA-DL^(ATF-4) cells were utilized as secondary assays to validate N,N′-diarylurea compounds as modifiers of the eIF2.GTP.Met-tRNAi ternary complex. […] To rule out the possibility that the activity of N,N′-diarylurea compounds was confined to a single cell type, the effects of these compounds on the ternary complex assay and the expression of CHOP mRNA was assayed in CRL-2351, PC-3, CRL-2813 human breast, prostate, and melanoma cancer cell lines respectively. For the reporter gene assay, the three human cell lines were co-transfected with tTA expression vector and the pBISA-DL^(ATF-4) dual luciferase expression vector shown in FIG. 6. […] The expression of CHOP mRNA was assayed by real time PCR in the same cell lines treated with 5 or 20 μM of each compound.
Stable and transient transfection: Cells were seeded at the density of 10^5 in 60-mm (stable transfection) or 10^4 cells per well of 96-well plate (transient transfection) plates and transfected one day later using the Qiagen Transfectamine transfection kit. For selection of stable cell lines, transfected cells were transferred to 100-mm plates and selected with appropriate antibiotics.
Dual luciferase assay: Cells or minced tumors expressing firefly and renilla luciferases were lysed and the extracts assayed with a glow type dual luciferase assay kit, per manufacturer's instruction (Promega Inc., Madison, Wis.).

[4] = system: KLN mouse squamous cell carcinoma cells; test: Cell proliferation SRB assay, KLN; assay type: cell-based; settings: KLN cells, read-out: IC50 (μM) by SRB assay, KLN
Procedure: as §1, §2

[5] = CRL-2351 human breast cancer cells, read-out: Growth Inhibition IC50 (μm)

N#Cc1ncc(Cl)cc1[N+](=O)[O-] [Compound 141226]
Activity 2.5 uM [1]: 1.02
Activity 10 uM [1]: 3.8

CO[C@@]12[C@H](COC(N)=O)C3=C(C(=O)C(C)=C(N)C3=O)N1C[C@@H]1N[C@@H]12 [mitomycin, reference compound]
Effect on firefly/renilla luciferase ratio [1]: no effect

tunicamycin [reference compound]
Effect on firefly/renilla luciferase ratio [1]: increase in the ratio

Clc1ccc(Nc2nncn2-c2ccc(Cl)c(Cl)c2)cc1Cl [Compound 1842]
fold induction at 3 µM [1]: 1
fold induction at 10 µM [1]: 1

FC(F)(F)c1ccc(NC(=S)Nc2ccc(Cl)c(Cl)c2)cc1 [Compound 1797]
fold induction at 3 µM [1]: 1
fold induction at 10 µM [1]: 1
IC50 [2, 5]: 1.2 µM

C[C@H](N)C(=O)NCC(=O)N[C@H]1CSSC[C@@H](C(=O)O)NC(=O)[C@H](CO)NC(=O)[C@H]([C@@H](C)O)NC(=O)[C@H](Cc2ccccc2)NC(=O)[C@H]([C@@H](C)O)NC(=O)[C@H](CCCCN)NC(=O)[C@H](Cc2c[nH]c3ccccc23)NC(=O)[C@H](Cc2ccccc2)NC(=O)[C@H](Cc2ccccc2)NC(=O)[C@H](CC(N)=O)NC(=O)[C@H](CCCCN)NC1=O [Somatostatin]
Relative F-luc/R-luc Ratio (+/− SEM) ([1]; agent at 20 μM): 0.9 + 0.2

FC(F)(F)c1cc(NC(=S)Nc2ccc(Cl)c(C(F)(F)F)c2)ccc1Cl [Compound 1778]
fold induction at 3 µM [1]: 5
fold induction at 10 µM [1]: 8
IC50 [2, 5]: 0.4 µM

Cc1ccc(N(C)C(=O)Nc2cc(C(F)(F)F)cc(C(F)(F)F)c2)cc1O [BLS13]
Ternary Complex Activity: Maximum effect (Emax, fold over control) [1]: 8.5 fold over control
Cmax [1]: 80 µM

FC(F)(F)c1cc(NC(=S)Nc2ccc(Cl)c(Cl)c2)cc(C(F)(F)F)c1 [Compound 1798]
fold induction at 3 µM [1]: 3
fold induction at 10 µM [1]: 5
IC50 [2, 5]: 0.4 µM

CNC(=O)c1cc(Oc2ccc(NC(=S)Nc3ccc(Cl)c(C(F)(F)F)c3)cc2)ccn1 [Compound 1814]
fold induction at 3 µM [1]: 1.5
fold induction at 10 µM [1]: 2
IC50 [2, 5]: 2 µM

Cc1ccc(NC(=S)Nc2cc(C(F)(F)F)cc(C(F)(F)F)c2)cc1O [Compound 1803]
fold induction at 3 µM [1]: 1
fold induction at 10 µM [1]: 12
IC50 [2, 5]: 1.7 µM

FC(F)(F)c1cc(NC(=S)Nc2ccc(Cl)cc2)ccc1Cl [Compound 1801]
fold induction at 3 µM [1]: 3
fold induction at 10 µM [1]: 3
IC50 [2, 5]: 0.8 µM

FC(F)(F)c1cc(NC(=S)Nc2ccc(Cl)c(Cl)c2)ccc1Cl [Compound 1799]
fold induction at 3 µM [1]: 4
fold induction at 10 µM [1]: 4
IC50 [2, 5]: 0.7 µM

FC(F)(F)c1cc(NC(=S)Nc2cc(C(F)(F)F)cc(C(F)(F)F)c2)cc(C(F)(F)F)c1 [Compound 1804]
fold induction at 3 µM [1]: 6
fold induction at 10 µM [1]: 25
IC50 [2, 5]: 0.1 µM

Cc1ccc(NC(=O)Nc2ccc(Cl)c(Cl)c2)cc1OCCN1CCOCC1 [Compound 15, 3-(3,4-dichlorophenyl)-1-{4-methyl-3-[2-(morpholin-4-yl)ethoxy]phenyl}urea]
maximal fold induction ([3]; Homo sapiens, read-out: ATF-4 Amax: maximal activity, ratio of firefly over renilla luciferase expression): 5.5
EC (activity threshold of 5) ([3]; Homo sapiens, read-out: ATF-4 C[5] (μM): concentration corresponding to an activity threshold of 5): 9 µM
Cmax ([3]; read-out: ATF-4 Cmax (μM): concentration corresponding to the maximal activity): 10 µM
IC50 [4]: 20 µM
IC50 ([2]; Homo sapiens, 2351 cells, read-out: IC50 (μM) by SRB assay, 2351): 2.4 µM

COc1cc(N(C)C(=O)Nc2cc(C(F)(F)F)cc(C(F)(F)F)c2)ccc1C [BLS14]
Ternary Complex Activity: Maximum effect (Emax, fold over control) [1]: Inactive

FC(F)(F)c1cc(NC(=S)Nc2ccc(Cl)cc2)cc(C(F)(F)F)c1 [Compound 1800]
fold induction at 3 µM [1]: 3
fold induction at 10 µM [1]: 4
IC50 [2, 5]: 0.5 µM

CN(C(=O)Nc1cc(C(F)(F)F)cc(C(F)(F)F)c1)c1cc(C(F)(F)F)cc(C(F)(F)F)c1 [BLS17]
Ternary Complex Activity: Maximum effect (Emax, fold over control) [1]: 13 fold over control
Cmax [1]: 10 µM

CC(C)(C)c1ccccc1NC(=S)Nc1cc(C(F)(F)F)cc(C(F)(F)F)c1 [Compound 1821]
fold induction at 3 µM [1]: 1
fold induction at 10 µM [1]: 1
IC50 [2, 5]: 4 µM

COc1ccc(NC(=S)Nc2ccccc2)cc1 [Compound 1815]
fold induction at 3 µM [1]: 1
fold induction at 10 µM [1]: 1
IC50 [2, 5]: > 20 µM

COc1cc([C@@H]2c3cc4c(cc3[C@@H](O[C@@H]3O[C@@H]5CO[C@@H](C)O[C@H]5[C@H](O)[C@H]3O)[C@H]3COC(=O)[C@H]23)OCO4)cc(OC)c1O [etoposite, reference compound]
Effect on firefly/renilla luciferase ratio [1]: no effect

FC(F)(F)c1cc(Nc2nncn2-c2cc(C(F)(F)F)cc(C(F)(F)F)c2)cc(C(F)(F)F)c1 [Compound 1836]
fold induction at 3 µM [1]: 1
fold induction at 10 µM [1]: 1
IC50 [2, 5]: 2 µM

CC(C)c1ccccc1NC(=S)Nc1cc(C(F)(F)F)cc(C(F)(F)F)c1 [Compound 1820]
fold induction at 3 µM [1]: 1.5
fold induction at 10 µM [1]: 11
IC50 [2, 5]: 1.5 µM

S=C(Nc1ccc(Cl)c(Cl)c1)Nc1ccc(Cl)c(Cl)c1 [Compound 1806]
fold induction at 3 µM [1]: 2.5
fold induction at 10 µM [1]: 3.5
IC50 [2, 5]: 0.9 µM

Cc1ccc(NC(=S)Nc2ccc(Cl)c(C(F)(F)F)c2)cc1O [Compound 1802]
fold induction at 3 µM [1]: 1.5
fold induction at 10 µM [1]: 7
IC50 [2, 5]: 3.5 µM

COc1ccc(NC(=S)Nc2cc(C(F)(F)F)cc(C(F)(F)F)c2)cc1 [Compound 1816]
fold induction at 3 µM [1]: 1
fold induction at 10 µM [1]: 2.5
IC50 [2, 5]: 1.5 µM

FC(F)(F)c1cc(NC(=S)Nc2ccccc2)cc(C(F)(F)F)c1 [Compound 1819]
fold induction at 3 µM [1]: 1
fold induction at 10 µM [1]: 6
IC50 [2, 5]: 1.5 µM

C/C=C(/C)C(=O)O[C@H]1C(C)=C2[C@H]([C@@H]1OC(=O)CCCCCCC)[C@@](C)(OC(C)=O)C[C@H](OC(=O)CCC)[C@@]1(O)[C@H]2OC(=O)[C@@]1(C)O [thapsigargin, reference compound]
Effect on firefly/renilla luciferase ratio [1]: increase in the ratio

CC(C)(C)C[CH2][Hg][Cl] [Compound 146249]
Activity 2.5 uM [1]: 2.57
Activity 10 uM [1]: 3.25

S=C(Nc1ccc(Cl)cc1)Nc1ccc(Cl)c(Cl)c1 [Compound 1805]
fold induction at 3 µM [1]: 1.4
fold induction at 10 µM [1]: 8
IC50 [2, 5]: 1.6 µM
